Experimental findings from ChEMBL document CHEMBL1201862, “PubChem BioAssay data set” (2004) are described below.

Assay [1] can be described thus: cells. The following applies: HEK293.
Assay [2] is described as follows: cells. To be noted: A549.
In assay [3] the target is T1, Aminopeptidase N (Plasmodium falciparum FcB1/Columbia, UniProt O96935).
T1 sequence (O96935 whole entry): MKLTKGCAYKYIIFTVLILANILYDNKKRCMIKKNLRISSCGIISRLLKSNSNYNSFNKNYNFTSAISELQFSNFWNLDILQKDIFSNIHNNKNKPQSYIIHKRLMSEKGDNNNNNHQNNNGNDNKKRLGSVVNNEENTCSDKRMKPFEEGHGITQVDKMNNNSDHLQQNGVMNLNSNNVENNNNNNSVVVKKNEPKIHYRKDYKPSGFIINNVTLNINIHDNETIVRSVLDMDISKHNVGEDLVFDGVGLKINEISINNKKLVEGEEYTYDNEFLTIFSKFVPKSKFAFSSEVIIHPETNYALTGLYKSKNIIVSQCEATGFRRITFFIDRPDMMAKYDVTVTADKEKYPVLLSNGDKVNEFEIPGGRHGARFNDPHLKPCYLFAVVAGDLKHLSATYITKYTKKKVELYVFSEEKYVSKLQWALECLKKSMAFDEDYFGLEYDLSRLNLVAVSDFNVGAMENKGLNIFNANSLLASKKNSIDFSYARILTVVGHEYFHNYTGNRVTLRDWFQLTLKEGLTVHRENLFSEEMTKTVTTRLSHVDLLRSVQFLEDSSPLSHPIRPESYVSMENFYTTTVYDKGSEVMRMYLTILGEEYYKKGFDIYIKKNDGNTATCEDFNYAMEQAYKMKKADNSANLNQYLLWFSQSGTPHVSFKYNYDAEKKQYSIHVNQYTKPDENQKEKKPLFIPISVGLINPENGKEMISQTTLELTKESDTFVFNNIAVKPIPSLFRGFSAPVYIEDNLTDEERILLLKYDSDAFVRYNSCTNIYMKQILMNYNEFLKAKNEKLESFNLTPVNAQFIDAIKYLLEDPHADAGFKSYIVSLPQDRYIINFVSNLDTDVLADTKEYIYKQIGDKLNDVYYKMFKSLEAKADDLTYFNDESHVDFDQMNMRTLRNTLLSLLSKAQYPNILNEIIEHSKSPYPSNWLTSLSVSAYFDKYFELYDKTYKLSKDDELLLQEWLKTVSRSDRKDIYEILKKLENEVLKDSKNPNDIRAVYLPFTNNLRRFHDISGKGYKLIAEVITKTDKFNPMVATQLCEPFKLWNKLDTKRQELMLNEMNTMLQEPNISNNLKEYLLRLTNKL
As to the kind of experiment: malaria alanyl aminopeptidase activity blockers – biochemical, fluorogenic H-Leu-NHMec substrate, 1536-well (AID 1445). The arrangement: species or system Plasmodium falciparum 3D7, 3D7.

Assay [4] deals with T2, DNA repair and recombination protein RAD54-like (Homo sapiens, UniProt Q92698).
T2 sequence (Q92698 whole entry): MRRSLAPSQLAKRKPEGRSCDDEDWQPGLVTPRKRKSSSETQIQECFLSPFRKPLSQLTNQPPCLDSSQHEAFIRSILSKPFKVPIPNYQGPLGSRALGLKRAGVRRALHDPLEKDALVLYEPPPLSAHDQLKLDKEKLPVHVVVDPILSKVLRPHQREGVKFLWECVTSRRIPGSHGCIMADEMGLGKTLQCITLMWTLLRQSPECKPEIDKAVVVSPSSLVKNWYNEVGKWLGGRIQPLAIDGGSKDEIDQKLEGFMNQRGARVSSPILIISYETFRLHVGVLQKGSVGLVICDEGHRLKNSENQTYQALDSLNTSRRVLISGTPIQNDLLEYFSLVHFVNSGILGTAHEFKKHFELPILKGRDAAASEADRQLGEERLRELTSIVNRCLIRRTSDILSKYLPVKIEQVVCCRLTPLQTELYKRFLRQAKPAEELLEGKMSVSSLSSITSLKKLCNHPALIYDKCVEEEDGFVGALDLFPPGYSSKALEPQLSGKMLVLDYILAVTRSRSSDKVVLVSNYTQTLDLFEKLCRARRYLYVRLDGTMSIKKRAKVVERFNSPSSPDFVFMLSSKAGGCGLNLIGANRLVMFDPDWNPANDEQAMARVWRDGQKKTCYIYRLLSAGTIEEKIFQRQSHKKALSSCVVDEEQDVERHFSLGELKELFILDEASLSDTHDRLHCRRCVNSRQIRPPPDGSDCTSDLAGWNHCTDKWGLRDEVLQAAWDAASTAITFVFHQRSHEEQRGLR
As to the kind of experiment: RAD54 Holliday junction migration blockers – biochemical, fluorescence, cherry-picked samples, dose series, confirmation (AID 651657). The assay is classed as functional.

Assay [5] in a line: reduced cellular PGC1a acetyl-lysine signal – cell-based, cherry-picked samples, dose response (AID 720514).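 Also: potency may reflect raised or lowered acetylation signal.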 In kind it is functional.
Assay [6] concerns the target T3, Caspase-3 (Homo sapiens, UniProt P42574).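 Also: Dose-response selectivity test against caspase-3 for candidate inhibitors of sentrin-specific proteases (SENPs).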
T3 sequence (P42574 whole entry): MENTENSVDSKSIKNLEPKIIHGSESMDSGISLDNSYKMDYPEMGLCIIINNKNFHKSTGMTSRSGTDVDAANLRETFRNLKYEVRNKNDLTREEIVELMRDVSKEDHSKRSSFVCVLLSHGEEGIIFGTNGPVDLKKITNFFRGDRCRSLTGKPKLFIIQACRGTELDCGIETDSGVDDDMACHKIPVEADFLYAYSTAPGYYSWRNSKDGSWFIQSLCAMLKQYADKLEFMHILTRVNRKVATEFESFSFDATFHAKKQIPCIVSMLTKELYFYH
In kind it is functional.

Assay [7] concerns the target T4, Sentrin-specific protease 7 (Homo sapiens, UniProt Q9BQF6).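 Also: Luminescence-based dose-response confirmation of ultra-high-throughput screening hits, measuring inhibition of SENP7.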
T4 sequence (Q9BQF6 whole entry): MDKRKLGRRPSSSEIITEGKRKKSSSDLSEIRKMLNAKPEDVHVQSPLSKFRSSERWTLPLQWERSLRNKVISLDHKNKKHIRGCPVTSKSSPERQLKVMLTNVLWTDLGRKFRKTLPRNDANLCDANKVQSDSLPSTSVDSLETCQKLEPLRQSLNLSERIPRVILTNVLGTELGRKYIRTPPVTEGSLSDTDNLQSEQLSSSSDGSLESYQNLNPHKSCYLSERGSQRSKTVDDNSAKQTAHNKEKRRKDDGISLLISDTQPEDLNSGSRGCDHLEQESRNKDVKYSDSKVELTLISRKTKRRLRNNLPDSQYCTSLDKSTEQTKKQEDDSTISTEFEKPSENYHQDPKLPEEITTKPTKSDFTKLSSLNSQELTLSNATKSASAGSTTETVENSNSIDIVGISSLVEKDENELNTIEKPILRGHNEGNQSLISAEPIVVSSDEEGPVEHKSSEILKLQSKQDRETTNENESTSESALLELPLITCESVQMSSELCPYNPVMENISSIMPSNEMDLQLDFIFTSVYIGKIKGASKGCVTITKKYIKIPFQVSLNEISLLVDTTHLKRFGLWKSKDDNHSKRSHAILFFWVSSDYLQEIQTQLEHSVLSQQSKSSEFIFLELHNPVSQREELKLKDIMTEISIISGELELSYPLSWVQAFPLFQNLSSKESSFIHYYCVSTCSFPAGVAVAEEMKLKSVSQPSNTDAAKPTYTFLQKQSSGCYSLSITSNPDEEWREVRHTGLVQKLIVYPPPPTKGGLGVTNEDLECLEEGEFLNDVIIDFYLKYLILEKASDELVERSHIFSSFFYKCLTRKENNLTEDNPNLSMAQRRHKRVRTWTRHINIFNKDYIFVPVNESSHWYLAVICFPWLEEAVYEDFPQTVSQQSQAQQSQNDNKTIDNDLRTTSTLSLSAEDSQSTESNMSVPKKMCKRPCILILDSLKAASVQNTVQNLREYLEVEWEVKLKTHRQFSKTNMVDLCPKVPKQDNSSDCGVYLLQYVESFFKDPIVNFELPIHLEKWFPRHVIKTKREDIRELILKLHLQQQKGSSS
In kind it is functional.

The target of assay [8] is T5, Sentrin-specific protease 8 (Homo sapiens, UniProt Q96LD8).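 Also: luminescence read-out of SENP8 inhibition, dose-response confirmation following an ultra-high-throughput screen.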
T5 sequence (Q96LD8 whole entry): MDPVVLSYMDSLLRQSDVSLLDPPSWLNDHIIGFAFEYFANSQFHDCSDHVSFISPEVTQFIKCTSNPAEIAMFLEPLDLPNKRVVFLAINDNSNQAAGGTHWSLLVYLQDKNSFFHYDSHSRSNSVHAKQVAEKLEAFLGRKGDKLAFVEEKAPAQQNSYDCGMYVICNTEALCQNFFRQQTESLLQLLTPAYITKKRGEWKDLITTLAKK
The assay is classed as functional.

In assay [9] the target is T6, Sentrin-specific protease 6 (Homo sapiens, UniProt Q9GZR1).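 Also: Luminescence-based dose-response confirmatory assay of SENP6 inhibition, following up an ultra-high-throughput screen.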
T6 sequence (Q9GZR1 whole entry): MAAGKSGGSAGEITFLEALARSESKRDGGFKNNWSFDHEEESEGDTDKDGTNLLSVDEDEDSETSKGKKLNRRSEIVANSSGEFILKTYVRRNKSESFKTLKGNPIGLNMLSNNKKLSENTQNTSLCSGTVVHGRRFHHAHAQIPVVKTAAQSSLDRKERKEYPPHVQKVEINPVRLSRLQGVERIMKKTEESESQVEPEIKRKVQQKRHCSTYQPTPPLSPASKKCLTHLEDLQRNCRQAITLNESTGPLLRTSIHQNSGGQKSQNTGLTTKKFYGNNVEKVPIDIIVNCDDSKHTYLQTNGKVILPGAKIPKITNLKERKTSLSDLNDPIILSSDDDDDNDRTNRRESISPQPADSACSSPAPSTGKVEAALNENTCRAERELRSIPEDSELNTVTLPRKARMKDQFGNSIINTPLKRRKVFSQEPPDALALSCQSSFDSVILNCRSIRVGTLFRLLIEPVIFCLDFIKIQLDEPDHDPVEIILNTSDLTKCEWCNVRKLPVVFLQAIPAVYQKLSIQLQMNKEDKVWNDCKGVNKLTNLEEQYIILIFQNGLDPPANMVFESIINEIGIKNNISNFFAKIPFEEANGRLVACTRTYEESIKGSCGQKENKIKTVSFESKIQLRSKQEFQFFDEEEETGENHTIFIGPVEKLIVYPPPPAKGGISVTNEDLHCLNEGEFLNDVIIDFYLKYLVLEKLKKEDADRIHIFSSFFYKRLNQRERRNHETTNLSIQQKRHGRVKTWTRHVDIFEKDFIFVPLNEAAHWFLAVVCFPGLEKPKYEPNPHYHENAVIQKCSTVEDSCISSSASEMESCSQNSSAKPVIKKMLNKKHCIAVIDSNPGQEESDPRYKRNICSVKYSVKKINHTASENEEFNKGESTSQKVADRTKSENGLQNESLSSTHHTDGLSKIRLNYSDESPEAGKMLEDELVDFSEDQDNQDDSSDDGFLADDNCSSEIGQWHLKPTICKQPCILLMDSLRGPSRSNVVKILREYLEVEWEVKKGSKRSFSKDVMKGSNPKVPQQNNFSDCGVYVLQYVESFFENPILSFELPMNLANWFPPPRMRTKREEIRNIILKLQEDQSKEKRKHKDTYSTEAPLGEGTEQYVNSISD
The assay is classed as functional.

The nature of assay [10]: Luminescence Cell-Based Dose Confirmation HTS to Identify Inhibitors of Platelet Dense Granule Release. [Related pubchem assays: 1663 (Primary HTS), 1678 (Summary of Project)]. In kind it is functional.
Assay [11] concerns BJ. The experiment in a line: BJ-TERT-LT-ST fibroblast viability loss – cell-based, RAS-independent, luminescence, dose response (AID 1935).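 Also: BJ fibroblasts immortalized with TERT plus LT and ST oncogenes.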 The assay is classed as functional. To be noted: Homo sapiens.
Assay [12] in a line: DRD fibroblast viability loss – cell-based, non-viral oncogenic, luminescence, dose response (AID 1934). The assay is classed as functional. To be noted: Homo sapiens.
In assay [13] the target is Luciferin 4-monooxygenase (Photinus pyralis, UniProt P08659). The experiment in a line: inhibition of purified Photinus pyralis luciferase – biochemical, luminescence, dose response (AID 1891).
In assay [14] the test system is BJ. As to the kind of experiment: cells. In kind it is functional, cell-based. The following applies: Homo sapiens.
Assay [15] is described as follows: microbe, parasite or virus in culture. In kind it is functional. The following applies: Mycobacterium tuberculosis.
Assay [16] concerns BJ. As to the kind of experiment: BJ-TERT fibroblast viability loss – cell-based, RAS-independent, luminescence, dose response (AID 1933). In kind it is functional. To be noted: Homo sapiens.

The structures appear in SMILES notation. The source made the active and inactive calls.

Chain of Luciferin 4-monooxygenase (P08659 whole entry): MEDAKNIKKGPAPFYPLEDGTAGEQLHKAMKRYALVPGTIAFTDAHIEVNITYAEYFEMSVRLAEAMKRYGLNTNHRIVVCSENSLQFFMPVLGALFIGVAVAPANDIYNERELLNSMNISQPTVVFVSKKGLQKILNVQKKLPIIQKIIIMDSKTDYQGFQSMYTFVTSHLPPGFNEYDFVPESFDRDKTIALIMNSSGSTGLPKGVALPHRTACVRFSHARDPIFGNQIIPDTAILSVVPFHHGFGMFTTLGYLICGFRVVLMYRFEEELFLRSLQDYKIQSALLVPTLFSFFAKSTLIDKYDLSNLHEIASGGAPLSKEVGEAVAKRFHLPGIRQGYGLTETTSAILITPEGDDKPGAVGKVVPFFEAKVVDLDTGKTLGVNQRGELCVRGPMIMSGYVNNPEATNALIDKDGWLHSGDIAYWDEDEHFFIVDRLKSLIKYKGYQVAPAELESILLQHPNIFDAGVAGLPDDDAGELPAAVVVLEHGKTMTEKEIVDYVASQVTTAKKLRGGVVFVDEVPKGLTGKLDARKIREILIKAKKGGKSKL

Broadly, the AC50 is the midpoint of the concentration-response curve, whichever way the signal moves. The IC50 is the concentration at which inhibition is half-maximal. On to `CCn1c(=N)c(C(=O)NCCCOC)cc2c(=O)n3cccc(C)c3nc21`, for which the AC50 in assay [1] is > 52 µM (inactive); in assay [2], > 52 µM (inactive); in [4] it was 33.6 µM (active). The IC50 in assay [3] was 50.3 µM (active).
As to `Cc1cccc(S(=O)(=O)N2C[C@@H]3N[C@H](C2)[C@@H]3c2ccc(-c3ccccc3C)cc2)c1`, in assay [5], the half-maximal activity concentration (AC50) is 12.8 µM (active).
As to `CC(=O)c1sc(N/N=C\c2ccc(N(C)C)cc2)nc1C`, the AC50 in [1] is > 52 µM (inactive). The half-inhibitory concentration (IC50) in [6] was 9.56 µM (active); in assay [7], 3.05 µM (active); in assay [8], 4.08 µM (active); in assay [9] it was 3.82 µM (active).
A word on the EC50: it is the midpoint of the concentration-response curve. `COc1ccccc1N1CCN(c2ccc(-c3ccccc3)nn2)CC1`: the EC50 was 5.08 µM (active) in [10]; 1.93 µM (active) in assay [11]; 1.7 µM (active) in [12]; 3.72 µM (active) in assay [13]; 17 µM (active) in assay [14]; 2.33 µM (active) in [16]. In addition, the AC50 in [5] is 25.9 µM (active). Besides, the CC50 in [15] was 13.7 µM (active).
